In patent publication US7196094B2, “Farnesyl transferase inhibiting 6-heterocyclylmethyl quinoline and quinazoline derivatives” (Janssen Pharmaceutica, N.V., priority 2000, dated 2007):

| melting point | Structure (SMILES) |
| --- | --- |
| 188 °C | Cn1cncc1C(O)(c1ccoc1)c1ccc2c(c1)c(-c1cccc(Cl)c1)cc1nnnn12 (stereo not drawn) [Compound 3, 5-(3-chlorophenyl)-α-(3-furanyl)-α-(1-methyl-1H-imidazol-5-yl)-tetrazolo[1,5-a]quinoline-7-methanol] |
| 192 °C | Cn1cncc1C(O)(c1ccc2ncccc2c1)c1ccc2c(c1)c(-c1cccc(Cl)c1)nc(=O)n2C (stereo not drawn) [Compound 7, 4-(3-chlorophenyl)-6-[hydroxy(1-methyl-1H-imidazol-5-yl)-6-quinolinylmethyl]-1-methyl-2(1H)-quinazolinone] |
| 150 °C | Cn1cncc1C(c1ccc2c(c1)c(-c1cccc(Cl)c1)nc1nnnn12)n1ccnc1-c1ccccc1 (stereo not drawn) [Compound 10, 5-(3-chlorophenyl)-7-[(1-methyl-1H-imidazol-5-yl)(2-phenyl-1H-imidazol-1-yl)methyl]-tetrazolo[1,5-a]quinazoline] |
